Each structure is given as a SMILES string.

This is an account of results in PMC5023777 (British Journal of Cancer, 2016).

The test system of data set [1] is HCT116 cells. Put plainly: Cell cycle phase analysis by flow cytometry, HCT116. To be noted: GI50 concentration (100 μM for 6 and 3), 24 h, asynchronous cultures.
Data set [2] deals with mTOR (Homo sapiens, UniProt P42345). In words: mTOR kinase TR-FRET assay. It counts as biochemical. In general terms: Time-resolved FRET reads energy transfer from a long-lived donor to a nearby acceptor.
mTOR, sequence (P42345 1360-2549 limits assumed): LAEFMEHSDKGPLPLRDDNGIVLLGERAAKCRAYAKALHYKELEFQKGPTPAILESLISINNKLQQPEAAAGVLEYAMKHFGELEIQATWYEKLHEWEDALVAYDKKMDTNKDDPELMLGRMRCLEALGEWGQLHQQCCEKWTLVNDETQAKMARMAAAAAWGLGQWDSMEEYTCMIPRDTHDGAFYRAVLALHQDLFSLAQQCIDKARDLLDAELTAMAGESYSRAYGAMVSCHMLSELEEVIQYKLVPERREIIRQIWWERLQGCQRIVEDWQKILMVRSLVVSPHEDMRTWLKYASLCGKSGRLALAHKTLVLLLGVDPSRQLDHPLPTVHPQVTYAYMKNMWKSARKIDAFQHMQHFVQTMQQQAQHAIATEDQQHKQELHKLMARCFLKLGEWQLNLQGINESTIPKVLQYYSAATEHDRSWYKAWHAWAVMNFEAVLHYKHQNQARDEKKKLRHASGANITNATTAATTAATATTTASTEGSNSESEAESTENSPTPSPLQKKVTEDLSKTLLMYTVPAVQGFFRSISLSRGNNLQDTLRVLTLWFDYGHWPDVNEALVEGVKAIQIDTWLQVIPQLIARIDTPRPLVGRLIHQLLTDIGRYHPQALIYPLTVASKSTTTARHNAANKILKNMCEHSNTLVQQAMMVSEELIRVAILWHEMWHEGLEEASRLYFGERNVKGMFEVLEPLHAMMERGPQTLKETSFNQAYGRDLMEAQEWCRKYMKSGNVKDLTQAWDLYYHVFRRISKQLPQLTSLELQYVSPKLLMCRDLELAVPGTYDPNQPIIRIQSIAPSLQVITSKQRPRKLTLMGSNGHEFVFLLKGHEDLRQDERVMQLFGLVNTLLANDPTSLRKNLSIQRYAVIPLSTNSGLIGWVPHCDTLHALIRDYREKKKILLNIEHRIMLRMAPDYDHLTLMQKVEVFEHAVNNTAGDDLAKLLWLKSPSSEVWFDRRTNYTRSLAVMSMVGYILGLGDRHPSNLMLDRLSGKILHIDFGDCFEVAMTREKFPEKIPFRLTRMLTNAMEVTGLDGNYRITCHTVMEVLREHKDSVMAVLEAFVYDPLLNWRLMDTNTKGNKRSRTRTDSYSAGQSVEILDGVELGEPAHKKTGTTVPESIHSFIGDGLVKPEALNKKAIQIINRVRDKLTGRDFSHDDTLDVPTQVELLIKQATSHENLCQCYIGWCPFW
Data set [3] concerns HCT116 cells. Put plainly: SRB cell growth inhibition assay, HCT116. Format: cell-based, human. To be noted: HCT116 and HT29 cells, SRB GI50.
The target in data set [4] is CDK2 (Homo sapiens, UniProt P24941). Put plainly: CDK2 purified kinase assay. Format: biochemical.
Data set [5] relates to HCT116 cells. Put plainly: Clonogenic survival assay, HCT116. Format: cell-based, human. To be noted: 10 μM, 72 h exposure.

For the compound `CO[C@H]1C[C@@H]2CC[C@@H](C)[C@@](O)(O2)C(=O)C(=O)N2CCCC[C@H]2C(=O)O[C@H]([C@H](C)C[C@@H]2CC[C@@H](O)[C@H](OC)C2)CC(=O)[C@H](C)/C=C(\C)[C@@H](O)[C@@H](OC)C(=O)[C@H](C)C[C@H](C)/C=C/C=C/C=C/1C` [Rapamycin], in data set [1], the “effect on cell cycle phase distribution, HCT116” value (shortened to “effect”) was “caused a G1 arrest”.
What is called IC50 is the midpoint of a concentration-inhibition curve. `Nc1nc(N)c(N=O)c(OCC2CCCCC2)n1` [Compound 2] yielded an IC50 in data set [2] of 19 µM. Further, the “effect” value in data set [1] is listed as “greater G1 phase accumulation than rapamycin or dactolisib”.
For `CCC(C)Oc1nc(N)nc(N)c1C#N` (stereo not shown) [Compound 7, 2,6-Diamino-4-sec-butoxypyrimidine-5-carbonitrile], the “fold less potent at inhibiting cell growth than 1, 2 and 5” value in data set [3] is recorded as 5–10 fold. The compound also returned a half-maximal inhibitory concentration (IC50) in data set [2] greater than 20 µM.
With `Cn1c(=O)n(-c2ccc(C(C)(C)C#N)cc2)c2c3cc(-c4cnc5ccccc5c4)ccc3ncc21` [Dactolisib (NVP-BEZ235)], in data set [1], the “effect” value is on record as “caused a G1 arrest”.
Turning to `Nc1nc(N)c(N=O)c(OCc2ccc(Cl)cc2)n1` [Compound 8, 6-(4-Chlorobenzyloxy)-5-nitrosopyrimidine-2,4-diamine], in data set [3], the “fold less potent at inhibiting cell growth than 1, 2 and 5” value is reported as 5–10 fold. This compound gave a half-inhibitory concentration (IC50) in data set [2] of 4.9 µM. Besides, the “inhibition of CDK2 (in words)” value in data set [4] is “did not inhibit CDK2”.
In the case of `NS(=O)(=O)c1ccc(Nc2nc(OCC3CCCCC3)c3nc[nH]c3n2)cc1` [NU6102, 4-[[6-(cyclohexylmethoxy)-9H-purin-2-yl]amino]-benzenesulfonamide], in data set [5], the “cytotoxicity (clonogenic), HCT116” value is reported as “cytotoxic as a single agent”.
